Tests used:
[1] = system: in vitro cell based rat BBB model
Experimental: (§3) A 20% BSA gradient was used for isolation of capillaries. After a second enzymatic digestion, cells were plated in 75 cm^2 coated culture flasks in EBM medium completed by the EGM-2 MV Single Quots kit (Lonza, Basel, Switzerland). Cultures were maintained at 37° C. in a humidified 5% CO2 atmosphere for 5-6 days before being trypsinized and frozen.
(§4) The chambers containing human glial cells and brain endothelial cells were considered as the basolateral and apical compartment, respectively. The microplates were then incubated at 37° C. in a 5% CO2 atmosphere. Under these experimental conditions, brain endothelial cells formed a confluent monolayer within 15 days.
(§5) After checking BBB integrity, Transwells® with BEC monolayers were transferred to new plates. T buffer (150 mM NaCl, 5.2 mM KCl, 2.2 mM CaCl2, 0.2 mM MgCl2, 6 mM NaHCO3, 2.8 mM glucose and 5 mM Hepes) was added 1.5 mL to the basal chamber (B) and 0.5 ml to the apical chamber (A). […] The Papp value was calculated as followed: Papp=dQ/dT×A×C0 (1) where dQ/dT: amount of drug transported per time-point; A: membrane surface area; Co: donor concentration at time-point 0. […] The mass balance was calculated as follows: R (%)=([(Ap+Bs)/A0]×100 (2) where Ap and Bs are the amount of tested compounds in the apical and basal compartments, respectively. A0 is the initial amount in the donor compartment.

[2] = system: CREB; assay: CREB mRNA in OHSC (RT-qPCR); format: cell-based; conditions: OHSCs from WT mice, 50 μM, 10 days
Experimental: FIG. 15. Plots illustrating the effect of Aftin-5 on relative mRNA expression levels of Long Term Potentialisation (LTP) biomarkers, i.e CREB (A), PSD95 (B) and BDNF (C) in C57B16J OHSC mice treated chronically with Aftin-5. OHSC culture media of OHSC were replaced by incubation medium containing Aftin-5 (50 μM; A50) or vehicle (0.1% DMSO; Veh). 10 days later, total mRNA in lysate was isolated and purified, cDNAs were then synthesized from […] of total mRNA. cDNAs were amplified by quantitative RT-PCR and the relative expression of specific genes was normalized to the housekeeping gene HPRT1 (2^—ΔCt). […] Data expressed as means+/−SEM from q=3 independent experiments with n=4-6 inserts/condition and 10 slices/insert. […]
The impact of Aftin-5 on gene expression of different biomarkers was determined by measuring mRNA levels of selected BDNF, CREB, PS95, INS Receptor/IGF-1 receptor, IL-1β, IL-6 in OHSC treated chronically with Aftin-5 or in a total brain from mice exposed to Aftin-5 at either 8 or 30 mg/Kg. […] RNA concentration was measured spectrophotometrically at 260 nm in a NanoDrop 2000c (Thermo Scientific, Villebon-sur-Yvette, France) (sample A260 nm/A280 nm ratios over 1.8 indicated reduced genomic DNA contamination). cDNAs were synthesized from 0.5 μg of total RNA with RT^2 First Strand kit (Qiagen, Courtaboeuf, France) according to the manufacturer's protocol and stored at −80° C. […]

[3] = system: aggregates of β-pleated sheets; assay: Thioflavin-S immunohistochemistry of total brain tissue of treated mice; format: in vivo; conditions: mice treated during 28 days
Experimental: C57B1 were exposed subcutaneously to Aftin-5 using osmotic minipumps ([…]; Saint-Germain-Nuelles, France). Aftin-5 was dissolved in DMSO:propylene glycol:ethanol (45:45:10). Mice were treated with 1, 3 or 30 mg/Kg for 28 days. Filled pumps were left in saline overnight at 37° C. for priming. Mice were anesthetized with isoflurane (3-4% v/v, 1.5 mL/min) in an induction chamber and maintained under anesthesia through a mask. Mice were shaved on their back, disinfected and an incision made between the scapulae for pump implantation and finally closed with clips. 1% lidocaine gel was applied over the incision for local analgesia. Animals recovered from anesthesia in heated pads and immediately returned to the cages.
Immunohistochemistry assay was conducted with the total brain tissue, from mice treated with Aftin-5 during 28 days, in the presence of Thioflavin-S dye, which binds aggregates of β-pleated sheets.

[4] = system: CREB, BDNF, PSD95; assay: mRNA of CREB, BDNF, PSD95 in brains of chronically treated WT mice; format: in vivo; conditions: brains from WT mice treated chronically
Experimental: The impact of Aftin-5 on gene expression of different biomarkers was determined by measuring mRNA levels of selected BDNF, CREB, PS95, INS Receptor/IGF-1 receptor, IL-1β, IL-6 in OHSC treated chronically with Aftin-5 or in a total brain from mice exposed to Aftin-5 at either 8 or 30 mg/Kg. Total RNA was extracted with TRIzol@ reagent and purified on RNeasy® minikit columns (Qiagen, Courtaboeuf, France). Briefly, cells were lysed with 0.5 mL of TRIzol@ reagent by pipetting. After addition of 100 μL of chloroform, mixtures were centrifuged at 10000 g for 15 min at 4° C., supernatants mixed with 600 μL of 70% ethanol and loaded onto RNeasy® columns. Total RNA was washed and eluted with RNase-free water according to manufacturer's protocol and stored at −80° C. RNA concentration was measured spectrophotometrically at 260 nm in a NanoDrop 2000c (Thermo Scientific, Villebon-sur-Yvette, France) (sample A260 nm/A280 nm ratios over 1.8 indicated reduced genomic DNA contamination). cDNAs were synthesized from 0.5 μg of total RNA with RT^2 First Strand kit (Qiagen, Courtaboeuf, France) according to the manufacturer's protocol and stored at −80° C. […] Threshold cycles (Ct) of target gene and cyclophilin A (Ppia−control housekeeping gene) were recorded and gene expression was calculated as 2^−ΔΔCt(ΔΔCt=ΔCttreated−ΔCtcontrol, ΔCt=Cttarget−CtPpia). […]

[5] = in vitro; conditions: rat
Experimental: as §3, §4, §5

[6] = system: IL-1β; assay: IL-1β mRNA in OHSC (RT-qPCR); format: cell-based, mice; conditions: 50 μM, 10 days, vs vehicle, P<0.001
Experimental: (§1) FIG. 10. Plots illustrating the effect of Aftin-5 on relative mRNA expression levels of interleukin-1-beta (IL-1β; (A)), interleukin-6 (IL-6; (B)), TNF-alpha (TNFα; (C)) and interleukin-10 (IL-10; (D)) in organotypic hippocampal slice cultures (OHSC). OHSC culture media […] were replaced by incubation medium containing Aftin-5 (50 μM; A50) or vehicle (0.1% DMSO; Veh). 10 days later, total mRNA in lysate was isolated and purified, cDNAs were then synthesized from […] of total mRNA. cDNAs were amplified by quantitative RT-PCR and the relative expression of specific genes was normalized to the housekeeping gene HPRT1 (2^−ΔCt). Mann-Whitney tests were performed and ***p<0.001 indicates significant differences between Aftin-5 and control conditions. Data expressed as means+/−SEM from q=3 independent experiments with n=4-6 inserts/condition and 10 slices/insert. […]
(§2) The impact of Aftin-5 on gene expression of different biomarkers was determined by measuring mRNA levels of selected BDNF, CREB, PS95, INS Receptor/IGF-1 receptor, IL-1β, IL-6 in OHSC treated chronically with Aftin-5 or in a total brain from mice exposed to Aftin-5 at either 8 or 30 mg/Kg. […] Threshold cycles (Ct) of target gene and cyclophilin A (Ppia−control housekeeping gene) were recorded and gene expression was calculated as 2^−ΔΔCt(ΔΔCt=ΔCttreated−ΔCtcontrol, ΔCt=Cttarget−CtPpia). […]

[7] = system: TNF-α; assay: TNF-α mRNA in OHSC (RT-qPCR); format: cell-based, mice; conditions: 50 μM, 10 days
Experimental: as §1, §2

[8] = system: GFAP and Iba-1 (microglial/astrocytes phenotype); assay: GFAP and Iba-1 mRNA in OHSC (RT-qPCR); format: cell-based, mice; conditions: 50 μM, 10 days
Experimental: as §1, with “FIG. 9.” for “FIG. 10.”, “of GFAP (left panel)” for “of interleukin-1-beta (IL-1β; (A)), interleukin-6 (IL-6; (B)), TNF-alpha (TNFα; (C))”, “and Iba-1 (right panel)” for “and interleukin-10 (IL-10; (D))”, “mRNA. cDNA” for “mRNA. cDNAs”, “and show no” for “and ***p<0.001 indicates”
as §2

CC[C@H](CO)Nc1nc(N(C)c2ccccc2)c2ncn(C(C)C)c2n1 [Aftin-5]
Papp compared to Papp value of memantine [1]: not significantly different | CREB mRNA [2]: transcriptional upregulation | aggregates of β-pleated sheets (Thioflavin-S binding) [3]: absence | mRNA for CREB, BDNF as well as for PSD95 in brain [4]: high mRNA | Papp at 60 min, 10 μM [5]: ~35 ×10⁻⁶ cm/s | IL-1β-mRNA synthesis [6]: significantly decrease | TNF-α mRNA synthesis [7]: no changes | microglial/astrocytes phenotype (GFAP, Iba-1 mRNA) [8]: does not affect

From patent publication US11472807B2, “Purine derivatives for use as medicament and for use in treating neurodegenerative or neuro-inflammatory disorders” (COMMISSARIAT À L'ENERGIE ATOMIQUE ET AUX ENERGIES …, priority 2017, dated 2022)
